Experimental data published in patent publication US7906655B2, “Hepatitis C virus inhibitors” (Bristol-Myers Squibb Company, priority 2008, dated 2011).

system: HCV 1b genotype; assay: HCV Replicon assay (HCV-neo replicon cells, wild-type); assay type: cell-based; details: HCV 1b genotype replicon; class symbols
Method in brief: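 Inhibition was measured in HCV-neo (genotype 1b) replicon cells. Some assay versions used luciferase reporters.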

`O=C(c1cccnc1)N1CCC[C@H]1c1nc2cc(C#Cc3ccc4[nH]c([C@@H]5CCCN5C(=O)c5cccnc5)nc4c3)ccc2[nH]1` [Example M26.1, N,N′-(1,2-ethynediyl)bis(2-((2S)-1-(3-pyridinylcarbonyl)-2-pyrrolidinyl)-1H-benzimidazole)] and `O=C(C(=O)N1CCC[C@H]1c1nc2cc(C#Cc3ccc4[nH]c([C@@H]5CCCN5C(=O)C(=O)c5ccccc5)nc4c3)ccc2[nH]1)c1ccccc1` [Example M26.3, 2.2′-(1,2-ethynediylbis(1H-benzimidazole-5,2-diyl(2S)-2,1-pyrrolidinediyl))bis(2-oxo-1-phenylethanone)] fall in the same range of EC50: 100 to 999 nM for the first, 100 to 999 nM for the second.

First: O=C([C@@H]1CCCO1)N1CCC[C@H]1c1nc2cc(C#Cc3ccc4[nH]c([C@@H]5CCCN5C(=O)[C@@H]5CCCO5)nc4c3)ccc2[nH]1 [Example M26.5]
Second: C[C@@H](c1nc2cc(C#Cc3ccc4[nH]c([C@H](C)N(C)C(=O)Cc5ccccc5)nc4c3)ccc2[nH]1)N(C)C(=O)Cc1ccccc1 [Example M32]
The EC50 of the first is higher: 100 to 999 nM for the first, < 4.57 nM for the second. The second is the more potent here.

`C[C@H](NC(=O)[C@H](O)c1ccccc1)c1nc2cc(C#Cc3ccc4[nH]c([C@H](C)NC(=O)[C@H](O)c5ccccc5)nc4c3)ccc2[nH]1` [Example M27] and `C[C@@H](c1nc2cc(C#Cc3ccc4[nH]c([C@H](C)N(C)C(=O)[C@H](O)c5ccccc5)nc4c3)ccc2[nH]1)N(C)C(=O)[C@H](O)c1ccccc1` [Example M33] cannot be ordered by EC50: < 4.57 nM for the first, < 4.57 nM for the second.

`C[C@H](NC(=O)[C@@](C)(O)c1ccccc1)c1nc2cc(C#Cc3ccc4[nH]c([C@H](C)NC(=O)[C@@](C)(O)c5ccccc5)nc4c3)ccc2[nH]1` [Example M28] and `C[C@@H](c1nc2cc(C#Cc3ccc4nc([C@H](C)N(C)C(=O)[C@@H](c5ccccc5)N(C)C)[nH]c4c3)ccc2[nH]1)N(C)C(=O)[C@@H](c1ccccc1)N(C)C` [Example M35] cannot be ordered by EC50: < 4.57 nM for the first, < 4.57 nM for the second.

same assay, conditions: HCV 1b genotype replicon; numeric values

First: C[C@@H](c1nc2cc(C#Cc3ccc4[nH]c([C@H](C)N(C)C(=O)[C@@](C)(O)c5ccccc5)nc4c3)ccc2[nH]1)N(C)C(=O)[C@@](C)(O)c1ccccc1 [Example M34]
Second: COC(=O)N[C@@H](C(=O)N(C)[C@@H](C)c1nc2cc(C#Cc3ccc4[nH]c([C@H](C)N(C)C(=O)[C@H](NC(=O)OC)c5ccccc5)nc4c3)ccc2[nH]1)c1ccccc1 [Example M36, dimethyl (1,2-ethynediylbis(1H-benzimidazole-5,2-diyl(1S)-1,1-ethanediyl(methylimino)((1R)-2-oxo-1-phenyl-2,1-ethanediyl)))biscarbamate]
The EC50 of the first is 8000-fold higher: 40 nM for the first, 0.005 nM for the second. The second is the more potent here.

same assay, conditions: Hepatitis C virus, HCV 1b genotype replicon; class symbols

`CN(C)[C@@H](C(=O)N1CCC[C@H]1c1nc2cc(C#Cc3ccc4nc([C@@H]5CCCN5C(=O)[C@@H](c5ccccc5)N(C)C)[nH]c4c3)ccc2[nH]1)c1ccccc1` [Example M19, (1R)-2-((2S)-2-(5-((2-((2S)-1-((2R)-2-(dimethylamino)-2-phenylacetyl)-2-pyrrolidinyl)-1H-benzimidazol-6-yl)ethynyl)-1H-benzimidazol-2-yl)-1-pyrrolidinyl)-N,N-dimethyl-2-oxo-1-phenylethanamine] and `CC(=O)N[C@@H](C(=O)N1CCC[C@H]1c1nc2cc(C#Cc3ccc4nc([C@@H]5CCCN5C(=O)[C@H](NC(C)=O)c5ccccc5)[nH]c4c3)ccc2[nH]1)c1ccccc1` [Example M21, N-((1R)-2-((2S)-2-(5-((2-((2S)-1-((2R)-2-acetamido-2-phenylacetyl)-2-pyrrolidinyl)-1H-benzimidazol-6-yl)ethynyl)-1H-benzimidazol-2-yl)-1-pyrrolidinyl)-2-oxo-1-phenylethyl)acetamide] cannot be ordered by EC50: < 4.57 nM for the first, < 4.57 nM for the second.

`O=CN[C@@H](C(=O)N1CCC[C@H]1c1nc2cc(C#Cc3ccc4[nH]c([C@@H]5CCCN5C(=O)[C@H](NC=O)c5ccccc5)nc4c3)ccc2[nH]1)c1ccccc1` [Example M20, N,N′-(1,2-ethynediylbis(1H-benzimidazole-5,2-diyl(2S)-2,1-pyrrolidinediyl((1R)-2-oxo-1-phenyl-2,1-ethanediyl)))diformamide] and `COC(=O)N[C@@H](C(=O)N1CCC[C@H]1c1nc2cc(C#Cc3ccc4[nH]c([C@@H]5CCCN5C(=O)[C@H](NC(=O)OC)c5ccccc5)nc4c3)ccc2[nH]1)c1ccccc1` [Example M23, dimethyl (1,2-ethynediylbis(1H-benzimidazole-5,2-diyl(2S)-2,1-pyrrolidinediyl((1R)-2-oxo-1-phenyl-2,1-ethanediyl)))biscarbamate] cannot be ordered by EC50: < 4.57 nM for the first, < 4.57 nM for the second.

`O=C([C@@H](c1ccccc1)N1CCOCC1)N1CCC[C@H]1c1nc2cc(C#Cc3ccc4[nH]c([C@@H]5CCCN5C(=O)[C@@H](c5ccccc5)N5CCOCC5)nc4c3)ccc2[nH]1` [Example M22, 5,5′-(1,2-ethynediyl)bis(2-((2S)-1-((2R)-2-(4-morpholinyl)-2-phenylacetyl)-2-pyrrolidinyl)-1H-benzimidazole)] and `O=C(Cc1ccccc1)N1CCC[C@H]1c1nc2cc(C#Cc3ccc4[nH]c([C@@H]5CCCN5C(=O)Cc5ccccc5)nc4c3)ccc2[nH]1` [Example M37, 5,5′-(1,2-ethynediyl)bis(2-((2S)-1-(phenylacetyl)-2-pyrrolidinyl)-1H-benzimidazole)] cannot be ordered by EC50: < 4.57 nM for the first, < 4.57 nM for the second.

Compared with `COC(=O)N[C@H](C(=O)N1CCC[C@H]1c1nc2cc(C#Cc3ccc4[nH]c([C@@H]5CCCN5C(=O)[C@@H](NC(=O)OC)C(C)C)nc4c3)ccc2[nH]1)C(C)C` [Example M24, methyl ((1S)-1-(((2S)-2-(5-((2-((2S)-1-((2S)-2-((methoxycarbonyl)amino)-3-methylbutanoyl)-2-pyrrolidinyl)-1H-benzimidazol-5-yl)ethynyl)-1H-benzimidazol-2-yl)-1-pyrrolidinyl)carbonyl)-2-methylpropyl)carbamate], `COC(=O)N[C@@H](C)C(=O)N1CCC[C@H]1c1nc2cc(C#Cc3ccc4[nH]c([C@@H]5CCCN5C(=O)[C@H](C)NC(=O)OC)nc4c3)ccc2[nH]1` [Example M25, methyl ((1S)-2-((2S)-2-(5-((2-((2S)-1-(N-(methoxycarbonyl)-L-alanyl)-2-pyrrolidinyl)-1H-benzimidazol-5-yl)ethynyl)-1H-benzimidazol-2-yl)-1-pyrrolidinyl)-1-methyl-2-oxoethyl)carbamate] is higher in EC50: < 4.57 nM for the first, 4.57 to 99 nM for the second. The first is the more potent here.

First: COC(=O)N[C@H](C)C(=O)N1CCC[C@H]1c1nc2cc(C#Cc3ccc4[nH]c([C@@H]5CCCN5C(=O)[C@@H](C)NC(=O)OC)nc4c3)ccc2[nH]1 [Example M26, methyl ((1R)-2-((2S)-2-(5-((2-((2S)-1-(N-(methoxycarbonyl)-D-alanyl)-2-pyrrolidinyl)-1H-benzimidazol-5-yl)ethynyl)-1H-benzimidazol-2-yl)-1-pyrrolidinyl)-1-methyl-2-oxoethyl)carbamate]
Second: O=C(c1ccco1)N1CCC[C@H]1c1nc2cc(C#Cc3ccc4[nH]c([C@@H]5CCCN5C(=O)c5ccco5)nc4c3)ccc2[nH]1 [Example M26.6, 5,5′-(1,2-ethynediyl)bis(2-((2S)-1-(2-furoyl)-2-pyrrolidinyl)-1H-benzimidazole)]
The EC50 of the first is lower: < 4.57 nM for the first, 4.57 to 99 nM for the second. The first is the more potent here.

First: O=C(c1nc(Cl)cc2ccccc12)N1CCC[C@H]1c1nc2cc(C#Cc3ccc4nc([C@@H]5CCCN5C(=O)c5nc(Cl)cc6ccccc56)[nH]c4c3)ccc2[nH]1 [Example M26.2, 3-chloro-1-(((2S)-2-(5-((2-((2S)-1-((3-chloro-1-isoquinolinyl)carbonyl)-2-pyrrolidinyl)-1H-benzimidazol-6-yl)ethynyl)-1H-benzimidazol-2-yl)-1-pyrrolidinyl)carbonyl)isoquinoline]
Second: O=C(OCc1ccccc1)N1CCC[C@H]1c1nc2cc(C#Cc3ccc4nc([C@@H]5CCCN5C(=O)OCc5ccccc5)[nH]c4c3)ccc2[nH]1 [Example M26.4, benzyl (2S)-2-(5-((2-((2S)-1-((benzyloxy)carbonyl)-2-pyrrolidinyl)-1H-benzimidazol-6-yl)ethynyl)-1H-benzimidazol-2-yl)-1-pyrrolidinecarboxylate]
The EC50 of the first is higher: 100 to 999 nM for the first, 4.57 to 99 nM for the second.

`C[C@H](NC(=O)[C@@H](c1ccccc1)N(C)C)c1nc2cc(C#Cc3ccc4nc([C@H](C)NC(=O)[C@@H](c5ccccc5)N(C)C)[nH]c4c3)ccc2[nH]1` [Example M29, (2R)-2-(dimethylamino)-N-((1S)-1-(5-((2-((1S)-1-(((2R)-2-(dimethylamino)-2-phenylacetyl)amino)ethyl)-1H-benzimidazol-6-yl)ethynyl)-1H-benzimidazol-2-yl)ethyl)-2-phenylacetamide] and `CC(=O)N[C@@H](C(=O)N[C@@H](C)c1nc2cc(C#Cc3ccc4nc([C@H](C)NC(=O)[C@H](NC(C)=O)c5ccccc5)[nH]c4c3)ccc2[nH]1)c1ccccc1` [Example M30, (2R)-2-acetamido-N-((1S)-1-(5-((2-((1S)-1-(((2R)-2-acetamido-2-phenylacetyl)amino)ethyl)-1H-benzimidazol-6-yl)ethynyl)-1H-benzimidazol-2-yl)ethyl)-2-phenylacetamide] cannot be ordered by EC50: < 4.57 nM for the first, < 4.57 nM for the second.

`O=C(Cc1ccccc1)N1C[C@H](O)C[C@H]1c1nc2cc(C#Cc3ccc4[nH]c([C@@H]5C[C@@H](O)CN5C(=O)Cc5ccccc5)nc4c3)ccc2[nH]1` [Example M37.1, (3R,5S,3′R,5′S)-5,5′-(1,2-ethynediylbis(1H-benzimidazole-5,2-diyl))bis(1-(phenylacetyl)-3-pyrrolidinol)] and `O=C(Cc1ccccc1)N1C[C@@H](N2CCCC2)C[C@H]1c1nc2cc(C#Cc3ccc4[nH]c([C@@H]5C[C@H](N6CCCC6)CN5C(=O)Cc5ccccc5)nc4c3)ccc2[nH]1` [Example M37.2, (3′S,5′S,3″″S,5″″S)-5′,5″-(1,2-ethynediylbis(1H-benzimidazole-5,2-diyl))bis(1′-(phenylacetyl)-1,3′-bipyrrolidine)] cannot be ordered by EC50: < 4.57 nM for the first, < 4.57 nM for the second.

same assay, conditions: Hepatitis C virus, HCV 1b genotype replicon; numeric values

With `COC(=O)N[C@@H](C(=O)N[C@@H](C)c1nc2cc(C#Cc3ccc4[nH]c([C@H](C)NC(=O)[C@H](NC(=O)OC)c5ccccc5)nc4c3)ccc2[nH]1)c1ccccc1` [Example M31, dimethyl (1,2-ethynediylbis(1H-benzimidazole-5,2-diyl(1S)-1,1-ethanediylimino((1R)-2-oxo-1-phenyl-2,1-ethanediyl)))biscarbamate] the EC50 was 0.033 nM.
